From BindingDB's records for doi:10.3109/14756366.2013.804072 (University of Calgary, 2014)

How the values were obtained:
Assay in all cases: CA Inhibition Assay
Details in all cases: pH 7.5; 25 °C
Carbonic anhydrase 14 = Carbonic anhydrase 14 (Homo sapiens, UniProt Q9ULX7)
Experimental: (§1) An Applied Photophysics stopped-flow instrument has been used for assaying the CA catalysed CO2 hydration activity. […] The CO2 concentrations ranged from 1.7 to 17 mM for the determination of the kinetic parameters and inhibition constants. […] The uncatalyzed rates were determined in the same manner and subtracted from the total observed rates. Stock solutions of inhibitor (0.1 mM) were prepared in distilled deionized water and dilutions up to 0.01nM were done thereafter with distilled-deionized water.

Carbonic anhydrase 1 = Carbonic anhydrase 1 (Homo sapiens, UniProt P00915)
Experimental: as §1

Carbonic anhydrase 12 = Carbonic anhydrase 12 (Homo sapiens, UniProt O43570)
Experimental: as §1

Carbonic anhydrase 13 = Carbonic anhydrase 13 (Homo sapiens, UniProt Q8N1Q1)
Experimental: as §1

Carbonic anhydrase 2 = Carbonic anhydrase 2 (Homo sapiens, UniProt P00918)
Experimental: as §1

Carbonic anhydrase 3 = Carbonic anhydrase 3 (Homo sapiens, UniProt P07451)
Experimental: as §1

Carbonic anhydrase 4 = Carbonic anhydrase 4 (Homo sapiens, UniProt P22748)
Experimental: as §1

[1] = molecular target: Carbonic anhydrase 5A, mitochondrial (Homo sapiens, UniProt P35218)
Experimental: as §1

[2] = molecular target: Carbonic anhydrase 5B, mitochondrial (Homo sapiens, UniProt Q9Y2D0)
Experimental: as §1

Carbonic anhydrase 6 = Carbonic anhydrase 6 (Homo sapiens, UniProt P23280)
Carbonic anhydrase 6, sequence (P23280 whole entry): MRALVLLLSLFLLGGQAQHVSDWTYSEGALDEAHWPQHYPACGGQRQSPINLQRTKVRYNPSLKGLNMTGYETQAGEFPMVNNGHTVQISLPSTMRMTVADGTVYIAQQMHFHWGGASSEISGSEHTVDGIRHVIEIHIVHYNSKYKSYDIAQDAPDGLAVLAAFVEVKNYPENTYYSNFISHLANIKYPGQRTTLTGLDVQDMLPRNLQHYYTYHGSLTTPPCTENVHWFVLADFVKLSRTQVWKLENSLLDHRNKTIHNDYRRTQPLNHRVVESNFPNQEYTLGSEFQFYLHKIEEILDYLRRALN
Experimental: as §1

Carbonic anhydrase 14, sequence (Q9ULX7 whole entry): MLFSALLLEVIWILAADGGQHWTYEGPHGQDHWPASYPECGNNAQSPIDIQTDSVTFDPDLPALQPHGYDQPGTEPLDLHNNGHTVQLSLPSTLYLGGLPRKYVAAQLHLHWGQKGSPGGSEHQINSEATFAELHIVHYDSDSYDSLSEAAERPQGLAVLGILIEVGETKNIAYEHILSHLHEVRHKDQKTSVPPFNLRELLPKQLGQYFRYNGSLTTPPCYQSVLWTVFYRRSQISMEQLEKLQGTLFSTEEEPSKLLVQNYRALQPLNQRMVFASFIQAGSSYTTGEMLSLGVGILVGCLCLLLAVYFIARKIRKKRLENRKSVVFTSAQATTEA
Carbonic anhydrase 12, sequence (O43570 whole entry): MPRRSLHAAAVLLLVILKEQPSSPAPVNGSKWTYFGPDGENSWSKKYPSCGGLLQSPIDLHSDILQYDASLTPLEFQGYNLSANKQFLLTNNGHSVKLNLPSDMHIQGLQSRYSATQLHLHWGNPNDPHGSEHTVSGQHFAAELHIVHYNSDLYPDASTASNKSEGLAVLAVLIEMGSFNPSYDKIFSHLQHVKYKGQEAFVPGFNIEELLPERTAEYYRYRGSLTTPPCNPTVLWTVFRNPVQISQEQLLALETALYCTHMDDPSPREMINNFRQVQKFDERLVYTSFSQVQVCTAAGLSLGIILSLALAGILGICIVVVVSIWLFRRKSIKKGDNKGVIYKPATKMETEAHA
Carbonic anhydrase 1, sequence (P00915 whole entry): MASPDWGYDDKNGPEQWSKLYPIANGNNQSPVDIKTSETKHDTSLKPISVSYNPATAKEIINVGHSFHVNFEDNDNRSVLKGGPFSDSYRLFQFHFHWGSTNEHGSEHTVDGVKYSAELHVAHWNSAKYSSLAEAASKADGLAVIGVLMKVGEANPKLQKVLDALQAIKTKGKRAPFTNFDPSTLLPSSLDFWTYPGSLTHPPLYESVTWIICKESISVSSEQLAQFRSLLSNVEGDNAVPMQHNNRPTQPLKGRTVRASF
Carbonic anhydrase 13, sequence (Q8N1Q1 whole entry): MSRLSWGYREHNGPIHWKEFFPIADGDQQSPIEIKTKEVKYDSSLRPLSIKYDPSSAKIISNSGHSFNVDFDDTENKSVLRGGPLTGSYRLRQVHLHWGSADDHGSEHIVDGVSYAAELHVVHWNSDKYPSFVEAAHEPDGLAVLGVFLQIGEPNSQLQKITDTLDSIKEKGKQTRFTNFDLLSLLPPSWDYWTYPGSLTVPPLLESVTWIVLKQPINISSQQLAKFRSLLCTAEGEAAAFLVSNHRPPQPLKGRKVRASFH
Carbonic anhydrase 3, sequence (P07451 whole entry): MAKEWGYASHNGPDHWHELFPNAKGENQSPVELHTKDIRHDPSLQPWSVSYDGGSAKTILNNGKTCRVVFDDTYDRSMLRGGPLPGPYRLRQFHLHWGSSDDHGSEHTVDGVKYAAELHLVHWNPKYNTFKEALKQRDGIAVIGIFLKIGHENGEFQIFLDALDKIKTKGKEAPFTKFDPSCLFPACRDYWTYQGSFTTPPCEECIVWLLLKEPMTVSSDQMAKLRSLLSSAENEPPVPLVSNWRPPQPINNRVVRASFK
Carbonic anhydrase 5B, mitochondrial, sequence (Q9Y2D0 whole entry): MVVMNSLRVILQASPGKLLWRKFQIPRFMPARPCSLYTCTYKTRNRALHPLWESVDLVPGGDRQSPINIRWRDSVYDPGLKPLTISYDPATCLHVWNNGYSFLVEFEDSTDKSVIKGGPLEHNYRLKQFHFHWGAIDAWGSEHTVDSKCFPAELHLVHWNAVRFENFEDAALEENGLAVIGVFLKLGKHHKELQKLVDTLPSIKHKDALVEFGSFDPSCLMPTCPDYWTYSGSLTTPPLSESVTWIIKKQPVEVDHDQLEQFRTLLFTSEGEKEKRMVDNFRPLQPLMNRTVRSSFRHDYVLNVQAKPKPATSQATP
Carbonic anhydrase 5A, mitochondrial, sequence (P35218 whole entry): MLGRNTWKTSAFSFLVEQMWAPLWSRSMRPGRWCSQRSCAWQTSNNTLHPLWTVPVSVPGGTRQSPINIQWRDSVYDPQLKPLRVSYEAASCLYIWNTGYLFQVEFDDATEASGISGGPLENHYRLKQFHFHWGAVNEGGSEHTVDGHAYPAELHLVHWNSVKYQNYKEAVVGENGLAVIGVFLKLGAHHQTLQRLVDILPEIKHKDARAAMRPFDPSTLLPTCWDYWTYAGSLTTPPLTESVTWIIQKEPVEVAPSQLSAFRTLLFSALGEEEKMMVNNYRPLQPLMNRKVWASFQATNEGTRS
Carbonic anhydrase 4, sequence (P22748 whole entry): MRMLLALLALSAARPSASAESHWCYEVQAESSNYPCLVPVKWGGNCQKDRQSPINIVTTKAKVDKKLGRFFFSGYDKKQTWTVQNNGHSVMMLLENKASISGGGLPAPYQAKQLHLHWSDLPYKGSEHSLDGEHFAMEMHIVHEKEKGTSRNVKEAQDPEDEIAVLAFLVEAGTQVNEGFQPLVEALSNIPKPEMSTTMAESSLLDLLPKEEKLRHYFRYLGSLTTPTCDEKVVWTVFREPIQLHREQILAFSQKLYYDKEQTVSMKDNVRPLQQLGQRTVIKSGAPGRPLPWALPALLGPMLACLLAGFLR

Structure (SMILES) | Ki (Carbonic anhydrase 14) [nM] | Ki (Carbonic anhydrase 1) [nM] | Ki (Carbonic anhydrase 12) [nM] | Ki (Carbonic anhydrase 13) [nM] | Ki (Carbonic anhydrase 2) [nM] | Ki (Carbonic anhydrase 3) [nM] | Ki (Carbonic anhydrase 4) [nM] | Ki [1] [nM] | Ki [2] [nM] | Ki (Carbonic anhydrase 6) [nM]
NS(=O)(=O)c1cc(Cl)c(Cl)c(S(N)(=O)=O)c1 [Dichlorophenamide, DCP] | 340 | – | – | – | – | – | – | – | – | –
CC1(C)[C@@H](O)C[C@H]2[C@](C)(O)[C@@H]3CCC4[C@@H](O)C3(C[C@@H](O)[C@@]21O)C[C@@]4(C)O (stereo partly specified) [Grayanotoxin III (GTX3)] | 1470 | 8010 | 2150 | 690 | 6130 | 760 | 510 | 1140 | 740 | 860
